Assay results: US20230391766A1, “1-(2-(4-CYCLOPROPYL-1H-1,2,3-TRIAZOL-1-YL)ACETYL)-4-HYDROXY-N-(BENZYL)PYRROLIDIN E-2-CARBOXAMIDE DERIVATIVES AS VHL INHIBITORS FOR THE TREATMENT OF ANEMIA AND CANCER” (Genentech, Inc., priority 2020, published 2023)

Assays:
[1] = biological target: T1, VHL (Homo sapiens, UniProt P40337); assay: VHL nanoBRET (+ Digitonin); type: cell-based
T1 construct: expressed in transfected cells
Description: (§1) The VHL NanoBRET™ Target Engagement Assay analyzes the apparent affinity of test compounds for VHL in cells by competitive displacement of a VHL NanoBRET™ tracer reversibly bound to a NanoLuc® VHL fusion protein stably expressed in the cells.
(§2) 50 nL of control compound (10 mM; parental unlabeled VHL antagonist; see structure below) and 50 nL of DMSO (negative control) were dispensed into the appropriate control wells. DMSO was backfilled to a final volume of 50 nL as required. […] Max Signal control wells consisted of DMSO only treated wells. Minimum Signal control wells contained of 10 uM parental unlabeled VHL antagonist (control compound—see structure below). […] Background Signal control wells were prepared without tracer for background correction steps.
(§3) The raw BRET ratio values were calculated by dividing the acceptor emission value (610 nm) by the donor emission value (460 nm) for each sample. To correct for background, the BRET ratio in the absence of tracer (average of no-tracer control samples) was subtracted from the BRET ratio of each sample. Raw BRET units were converted to milliBRET units (mBU) by multiplying each raw BRET value by 1,000. The normalized NanoBRET™ signal was calculated relative to the Max Signal control wells (DMSO treated control wells) and the Minimum Signal control wells. Percentage inhibition was calculated relative to the Minimum Signal control and Maximum Signal control wells. IC50 values were derived by four parameter curve fitting using the Robust method.

[2] = biological target: T1, VHL; assay: VHL HEK-293 BRET Assay (VHL NanoBRET Target Engagement Assay); type: cell-based; settings: for IC50: HEK 293 RT VHL-NanoLuc stable cells, 1 uM tracer, 2 hours, geometric mean where more than one measurement, read-out: VHL binding in cells (HEK293 nanoBRET); for Ratio cell permeability shift: ratio not defined
Description: as §1, §2, §3

T1 sequence (P40337 whole entry): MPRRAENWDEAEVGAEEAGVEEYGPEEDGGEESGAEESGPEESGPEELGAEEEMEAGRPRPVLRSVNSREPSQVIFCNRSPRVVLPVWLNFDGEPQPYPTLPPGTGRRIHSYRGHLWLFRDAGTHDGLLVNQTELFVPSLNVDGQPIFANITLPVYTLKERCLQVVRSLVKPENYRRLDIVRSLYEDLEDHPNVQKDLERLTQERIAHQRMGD

EC50 [1] [µM]	IC50 [2] [µM]	Ratio cell permeability shift [2]	Structure (SMILES)
24.5	> 100		CC(=O)NCC1(c2cn([C@@H](C(=O)N3C[C@H](O)C[C@H]3C(=O)N[C@H](Cc3ccc(-c4ccccc4)cc3)C(N)=O)C(C)(C)C)nn2)CC1 [Example S12, (2S,4R)—N—((R)-3-([1,1′-biphenyl]-4-yl)-1-amino-1-oxopropan-2-yl)-1-((R)-2-(4-(1-(acetamidomethyl)cyclopropyl)-1H-1,2,3-triazol-1-yl)-3,3-dimethylbutanoyl)-4-hydroxypyrrolidine-2-carboxamide]
1.54	1.1	0.71	C[C@@H](NC(=O)[C@@H]1C[C@@H](O)CN1C(=O)[C@@H](n1cc(C2CC2)nn1)C(C)(C)C)c1ccc(-c2ccccc2F)cc1 [Example S42, (2S,4R)-1-((S)-2-(4-cyclopropyl-1H-1,2,3-triazol-1-yl)-3,3-dimethylbutanoyl)-N—((R)-1-(2′-fluoro-[1,1′-biphenyl]-4-yl)ethyl)-4-hydroxypyrrolidine-2-carboxamide]
0.11	0.08	0.74	Cc1ncsc1-c1ccc([C@@H](NC(=O)[C@@H]2C[C@@H](O)CN2C(=O)[C@@H](n2cc(C3CC3)nn2)C(C)(C)C)C(F)(F)F)cc1 [Example S40, (2S,4R)-1-((S)-2-(4-cyclopropyl-1H-1,2,3-triazol-1-yl)-3,3-dimethylbutanoyl)-4-hydroxy-N—((R)-2,2,2-trifluoro-1-(4-(4-methylthiazol-5-yl)phenyl)ethyl)pyrrolidine-2-carboxamide]
0.01		0.67	CCC(C)(C)[C@@H](C(=O)N1C[C@H](O)C[C@H]1C(=O)N[C@@H](C)c1ccc(-c2scnc2C)cc1)n1cc(C2CC2)nn1 [Example S21, (2S,4R)-1-((S)-2-(4-cyclopropyl-1H-1,2,3-triazol-1-yl)-3,3-dimethylpentanoyl)-4-hydroxy-N—((S)-1-(4-(4-methylthiazol-5-yl)phenyl)ethyl)pyrrolidine-2-carboxamide]
< 0.005	< 0.005		Cc1ncsc1-c1ccc2c(c1)CCCC[C@H]2NC(=O)[C@@H]1C[C@@H](O)CN1C(=O)[C@@H](n1cc(C2CC2)nn1)C(C)(C)C [Example S44, (2S,4R)-1-((S)-2-(4-cyclopropyl-1H-1,2,3-triazol-1-yl)-3,3-dimethylbutanoyl)-4-hydroxy-N—((R)-2-(4-methylthiazol-5-yl)-6,7,8,9-tetrahydro-5H-benzo[7]annulen-5-yl)pyrrolidine-2-carboxamide]
0.61	69.8	115.18	CC(C)(C)[C@@H](C(=O)N1C[C@H](O)C[C@H]1C(=O)N[C@H](Cc1ccc(-c2ccccc2)cc1)C(N)=O)n1cc(C(=O)O)nn1 [Example S15, 1-((S)-1-((2S,4R)-2-(((R)-3-([1,1′-biphenyl]-4-yl)-1-amino-1-oxopropan-2-yl)carbamoyl)-4-hydroxypyrrolidin-1-yl)-3,3-dimethyl-1-oxobutan-2-yl)-1H-1,2,3-triazole-4-carboxylic acid]
3.64	5.4	1.48	Cc1cnnn1[C@H](C(=O)N1C[C@H](O)C[C@H]1C(=O)N[C@H](Cc1ccc(-c2ccccc2)cc1)C(N)=O)C(C)C [Example S32, (2S,4R)—N—((R)-3-([1,1′-biphenyl]-4-yl)-1-amino-1-oxopropan-2-yl)-4-hydroxy-1-((S)-3-methyl-2-(5-methyl-1H-1,2,3-triazol-1-yl)butanoyl)pyrrolidine-2-carboxamide]
> 100			Cc1c(C(=O)O)nnn1[C@@H](C(=O)N1C[C@H](O)C[C@H]1C(=O)N[C@H](Cc1ccc(-c2ccccc2)cc1)C(N)=O)C(C)C [Example S34, 1-((R)-1-((2S,4R)-2-(((R)-3-([1,1′-biphenyl]-4-yl)-1-amino-1-oxopropan-2-yl)carbamoyl)-4-hydroxypyrrolidin-1-yl)-3-methyl-1-oxobutan-2-yl)-5-methyl-1H-1,2,3-triazole-4-carboxylic acid]
43.7	62.5	1.43	COC(=O)c1nnn([C@@H](C(=O)N2C[C@H](O)C[C@H]2C(=O)N[C@H](Cc2ccc(-c3ccccc3)cc2)C(N)=O)C(C)C)c1C (single isomer, unassigned) [Isomer A from Example S33]
0.02	0.02	1.15	C#CC1(c2cn([C@H](C(=O)N3C[C@H](O)C[C@H]3C(=O)NCc3ccc(-c4scnc4C)cc3)C(C)(C)C)nn2)CC1 [Compound 30, (2S,4R)-1-((S)-2-(4-(1-ethynylcyclopropyl)-1H-1,2,3-triazol-1-yl)-3,3-dimethylbutanoyl)-4-hydroxy-N-(4-(4-methylthiazol-5-yl)benzyl)pyrrolidine-2-carboxamide]
0.17	0.19	1.12	CC(C)[C@@H](C(=O)N1C[C@H](O)C[C@H]1C(=O)N[C@H](Cc1ccc(-c2ccccc2)cc1)C(N)=O)n1cc(-c2cccs2)nn1 [Example S38, (2S,4R)—N—((R)-3-([1,1′-biphenyl]-4-yl)-1-amino-1-oxopropan-2-yl)-4-hydroxy-1-((S)-3-methyl-2-(4-(thiophen-2-yl)-1H-1,2,3-triazol-1-yl)butanoyl)pyrrolidine-2-carboxamide]
0.2	0.19	0.96	NC(=O)[C@@H](Cc1ccc(-c2ccccc2)cc1)NC(=O)[C@@H]1C[C@@H](O)CN1C(=O)[C@H](C1CCC1)n1cc(C2CC2)nn1 [Example S4, (2S,4R)—N—((R)-3-([1,1′-biphenyl]-4-yl)-1-amino-1-oxopropan-2-yl)-1-((S)-2-cyclobutyl-2-(4-cyclopropyl-1H-1,2,3-triazol-1-yl)acetyl)-4-hydroxypyrrolidine-2-carboxamide]
1.16	1.66	1.43	Cc1nnn([C@H](C(=O)N2C[C@H](O)C[C@H]2C(=O)N[C@H](Cc2ccc(-c3ccccc3)cc2)C(N)=O)C(C)C)c1C [Example S37, (2S,4R)—N—((R)-3-([1,1′-biphenyl]-4-yl)-1-amino-1-oxopropan-2-yl)-1-((S)-2-(4,5-dimethyl-1H-1,2,3-triazol-1-yl)-3-methylbutanoyl)-4-hydroxypyrrolidine-2-carboxamide]
		0.67	Cc1ncsc1-c1ccc(CNC(=O)[C@@H]2C[C@@H](O)CN2C(=O)[C@H](C2CCCCC2)n2cc(C3CC3)nn2)cc1 [Example S25, (2S,4R)-1-((S)-2-cyclohexyl-2-(4-cyclopropyl-1H-1,2,3-triazol-1-yl)acetyl)-4-hydroxy-N-(4-(4-methylthiazol-5-yl)benzyl)pyrrolidine-2-carboxamide]
13			Cc1c(C(=O)O)nnn1[C@H](C(=O)N1C[C@H](O)C[C@H]1C(=O)N[C@H](Cc1ccc(-c2ccccc2)cc1)C(N)=O)C(C)C [Example S35, 1-((S)-1-((2S,4R)-2-(((R)-3-([1,1′-biphenyl]-4-yl)-1-amino-1-oxopropan-2-yl)carbamoyl)-4-hydroxypyrrolidin-1-yl)-3-methyl-1-oxobutan-2-yl)-5-methyl-1H-1,2,3-triazole-4-carboxylic acid]
